Test results: article PMC8225200, “Epipregnanolone as a Positive Modulator of GABAA Receptor in Rat Cerebellar and Hippocampus Neurons” (Biomolecules, 2021)

How the values were obtained:
Test in all cases: whole-cell patch clamp, GABA-induced chloride current
Format in all cases: cell-based
[1] = system: T1, GABAA receptor (native, rat cerebellar Purkinje cells); conditions: positive allosteric modulator, 2 µM GABA co-applied, pH 7.4, holding -70 mV
T1 construct: gene Gabra1; native heteropentameric receptors in acutely isolated Purkinje neurons

[2] = system: T2, GABAA receptor (native, rat hippocampal CA3 pyramidal neurons); conditions: positive allosteric modulator; 2 µM GABA co-applied; pH 7.4; holding -70 mV
T2 construct: gene Gabra1; native heteropentameric receptors in acutely isolated CA3 pyramidal neurons; subunit composition not determined

[3] = system: T1, GABAA receptor (native, rat cerebellar Purkinje cells); conditions: weak inhibition; 2 µM GABA co-applied; pH 7.4; holding -70 mV

## CC(=O)[C@H]1CC[C@H]2[C@@H]3CC[C@H]4C[C@H](O)CC[C@]4(C)[C@H]3CC[C@]12C [ALLO, 3α-hydroxy-5α-pregnan-20-one]
[1]; fit to rising phase of bell-shaped curve
  EC50: 0.29 ± 0.06 µM

## CC(=O)[C@H]1CC[C@H]2[C@@H]3CC[C@@H]4C[C@@H](O)CC[C@]4(C)[C@H]3CC[C@]12C [Epi, 3β-hydroxy-5β-pregnan-20-one]
[2]
  EC50: 9.3 ± 2.9 µM
[1]
  EC50: 5.7 ± 1.9 µM

## CC(=O)[C@H]1CC[C@H]2[C@@H]3CC[C@H]4C[C@@H](O)CC[C@]4(C)[C@H]3CC[C@]12C [Iso, 3β-hydroxy-5α-pregnan-20-one]
[3]
  % of control current at 100 μM: 84 ± 4%
